# Source: ChEMBL document CHEMBL2010737, “Synthesis, modeling and functional activity of substituted styrene-amides as small-molecule CXCR7 agonists” (Eur J Med Chem, 2012)
# Calls of active or inactive are those of the source. No cut-off for these calls is given here.
# Key:
# [1] = target: T1, Atypical chemokine receptor 3 (Homo sapiens, UniProt P25106); test: Agonist activity at human CXCR7 expressed in HEK293 cells assessed as reduction of receptor surface expression after 1 hr by ELISA based internalization assay; assay type: functional, cell-based
# T1 sequence (P25106 whole entry): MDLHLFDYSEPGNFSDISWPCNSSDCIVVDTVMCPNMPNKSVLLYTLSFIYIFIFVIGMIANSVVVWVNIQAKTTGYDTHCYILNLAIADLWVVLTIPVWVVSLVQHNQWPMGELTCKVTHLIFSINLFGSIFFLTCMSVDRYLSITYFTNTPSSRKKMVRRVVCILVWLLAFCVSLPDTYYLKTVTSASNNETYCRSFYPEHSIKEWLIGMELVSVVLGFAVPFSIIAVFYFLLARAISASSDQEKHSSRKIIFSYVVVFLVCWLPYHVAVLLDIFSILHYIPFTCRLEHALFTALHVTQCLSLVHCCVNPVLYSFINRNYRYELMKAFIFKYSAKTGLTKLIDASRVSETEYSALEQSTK
# [2] = target: T1, Atypical chemokine receptor 3; test: Displacement of [125I]-CXCL12 from human CXCR7 expressed in HEK293 cells after 3 hrs; assay type: cell-based
# [3] = target: T1, Atypical chemokine receptor 3; test: Agonist activity at human CXCR7 expressed in HEK293T cells co-expressing beta-arrestin2-YFP assessed as beta-arrestin2 recruitment after 1 hr by BRET assay; assay type: functional, cell-based, HEK-293T; details: for Activity: HEK-293T
# [4] = target: T1, Atypical chemokine receptor 3; test: Agonist activity at human CXCR7 expressed in HEK293 cells assessed as reduction of receptor surface expression at 10^-5 M after 1 hr by ELISA based internalization assay; assay type: functional, cell-based
Structure (SMILES),Ki [2] [nM],also measured
COc1ccc(C(=O)N(CCC2CCCN2C)C/C(C)=C/c2ccccc2F)cc1OC (racemic),20,Activity [1]: Dose-dependent effect; EC50 [1]: 23.7 nM; EC50 [3]: 1 nM; Activity [3]: Dose-dependent effect
COc1ccc(C(=O)N(CCC2CCCN2C)C/C(C)=C/c2cc(F)cc(C(F)(F)F)c2)cc1OC (racemic),5010,–
COc1cc(C(=O)N(CCC2CCCN2C)C/C(C)=C/c2ccccc2)cc(OC)c1OC (racemic),15.8,–
COc1ccc(C(=O)N(CCC2CCCN2C)C/C(C)=C/c2cccc(F)c2)cc1OC (racemic),100,–
COc1cc(C(=O)N(CCCN2CCCCC2C)C/C(C)=C/c2ccccc2)cc(OC)c1OC (racemic),200,–
COc1ccc(C(=O)N(CCC2CCCN2C)C/C(C)=C/c2ccc(F)cc2F)cc1OC (racemic),100,–
C/C(=C\c1ccccc1)CN(CCC1CCCN1C)C(=O)c1ccc2c(c1)OCCO2 (racemic),794,–
COc1cc(C(=O)N(CCC2CCCN2C)C/C(C)=C/c2ccc(F)cc2)cc(OC)c1OC (racemic),50.1,–
COc1cc(C(=O)N(CCCN2CCOCC2)C/C(C)=C/c2ccccc2)cc(OC)c1OC,398,–
COc1cc(C(=O)N(CCC2CCCN2C)C/C(C)=C/c2ccccc2F)cc(OC)c1OC (racemic),7.94,Activity [1]: Dose-dependent effect; EC50 [1]: 14.1 nM; EC50 [3]: 1.6 nM; Activity [3]: Dose-dependent effect
COc1cc(C(=O)N(C/C=C/c2ccccc2)CCC2CCCN2C)cc(OC)c1OC (racemic),794,–
C/C(=C\c1ccc(F)cc1F)CN(CCC1CCCN1C)C(=O)c1ccc2c(c1)OCO2 (racemic),3160,–

# Continued by falling Ki [2], values first:
Ki [2] [nM],Structure (SMILES),also measured
5010,COc1cc(C(=O)N(CCC2CCCN2C)C/C(C)=C/c2cc(F)cc(C(F)(F)F)c2)cc(OC)c1OC (racemic),Activity [4]: Active; EC50 [3]: 1400 nM
1580,C/C(=C\c1ccc(F)cc1F)CN(CCC1CCCN1C)C(=O)c1ccc2c(c1)OCCO2 (racemic),–
1580,COc1cc(C(=O)N(CCCO)C/C(C)=C/c2ccccc2)cc(OC)c1OC,–
1260,COc1ccc(C(=O)N(CCC2CCCN2C)C/C(C)=C/c2ccccc2)c(OC)c1 (racemic),–
1260,COc1ccc(/C=C(\C)CN(CCC2CCCN2C)C(=O)c2cc(OC)c(OC)c(OC)c2)c(F)c1 (racemic),–
1260,COc1ccc(/C=C(\C)CN(CCC2CCCN2C)C(=O)c2ccc(OC)c(OC)c2)c(F)c1 (racemic),–
794,COc1ccc(C(=O)N(CCC2CCCN2C)C/C(C)=C/c2ccccc2)cc1C (racemic),–
79.4,COc1ccc(C(=O)N(CCC2CCCN2C)C/C(C)=C/c2ccc(F)cc2)cc1OC (racemic),–
79.4,COc1cc(C(=O)N(CCC2CCCN2C)C/C(C)=C/c2cccc(F)c2)cc(OC)c1OC (racemic),–
31.6,COc1cc(C(=O)N(CCC2CCCN2C)C/C(C)=C/c2ccc(F)cc2F)cc(OC)c1OC (racemic),–
25.1,COc1ccc(C(=O)N(CCC2CCCN2C)C/C(C)=C/c2ccccc2)cc1OC (racemic),–
12.6,COc1cc(C(=O)N(C/C=C(\C)c2ccccc2)CCC2CCCN2C)cc(OC)c1OC (racemic),–
